Measurements published in patent publication US5935955A, “Pharmaceutical piperazine compounds” (Xenova Limited, priority 1994, dated 1999).
pIC50: −log10 of the molar value. Where a name gives a salt, the structure may show the parent alone. Read-outs that look alike come from different tables or passages of the source.

Tests used:
AR 1.0 cells [1] = experiment: Compound toxicity (proliferation, sulphorhodamine B); type: cell-based; settings: Mus musculus, 96 h; compound alone; AR 1.0 cells; four day incubation; read-out: Compound toxicity (IC50)
AR 1.0 cells [2] = experiment: Drug accumulation assay (tritiated daunorubicin); type: cell-based; settings: Mus musculus; for pIC50: daunorubicin 2 μM, 1 hr at 37° C., read-out: IC50 accumulation; for Emax: 1 h, read-out: Max accumulation
Experimental: AR 1.0 cells were seeded into 96 well opaque culture plates (Canberra Packard). The assay medium contained a mixture of tritiated Daunorubicin (DNR), a cytotoxic agent, and unlabelled DNR (0.3 μCi/ml; 2 μM). Compounds of formula I were serially diluted in assay medium over a range of concentrations from 5 nM to 100 μM. The cells were incubated at 37° C. for 1 hr before washing and determination of cell associated radioactivity. Results were expressed as % maximum accumulation where 100% accumulation is that observed in the presence of the known RMA verapamil at 100 μM. Where possible an IC50 was determined.

AR 1.0 cells [3] = experiment: Potentiation index for doxorubicin (doxorubicin titration with fixed concentration of compound); type: cell-based, mouse; settings: RMA at 1 μM; doxorubicin, four days
Experimental: The EMT6 mouse mammary carcinoma cell line and the MDR resistant sublime AR 1.0 were cultured in RPMI 1640 medium containing 10% foetal calf serum and 2 mM glutamine at 37° C. in 5% CO2. Cells were passaged between 1 in 200 and 1 in 2000 in the case of the parental cell line and between 1 in 20 and 1 in 200 in the case of the MDR resistant subline, after trypsinisation (0.25% trypsin, 0.2 gl^-1, EDTA).
Cells were cultured for four days with a titration of doxorubicin (0.01 nm-50 μM) in the presence of a fixed concentration of each compound. Proliferation was quantified as described by Skehan et. al, loc cit. The IC50 (concentration required to reduce proliferation to 50% of the untreated controls) for doxorubicin alone and with each compound were derived and used to calculate the potentiation index (PI): [formula]

AR 1.0 cells [4] = experiment: Potentiation of doxorubicin toxicity (fixed doxorubicin 0.86 μM, proliferation, sulphorhodamine B); type: cell-based, mouse; settings: for pIC50: with doxorubicin 0.86 μM, four day incubation, 5760 min, read-out: Toxicity with cytotoxic agent (IC50)
Text: Compounds of formula (I) were examined for their ability to potentiate the toxicity of doxorubicin in AR 1.0 cells.

[5] = % maximum accumulation, 100% = verapamil at 100 μM, compound 5 nM to 100 μM

| Structure (SMILES) | pIC50 (AR 1.0 cells [2]) | pIC50 (AR 1.0 cells [1]) | Emax (AR 1.0 cells [2]; [5]) | pIC50 (AR 1.0 cells [4]) | further results |
| --- | --- | --- | --- | --- | --- |
| CN1CCN(CCNC(=O)c2ccc(/C=c3\[nH]c(=O)/c(=C/c4ccccc4)n(C)c3=O)cc2)CC1 [Compound 9007, N-(2-(4-Methyl-1-piperazinyl)ethyl)-4-((3Z,6Z)-6-benzylidene-1-methyl-2,5-dioxo-3-piperazinylidene)methylbenzamide] | – | – | 30% | – | – |
| CN(C)CC(O)COc1ccc(/C=c2\[nH]c(=O)/c(=C/c3ccccc3)n(C)c2=O)cc1 (stereo not drawn) [Compound 9023, (3Z,6Z)-6-Benzylidene-3-(4-(3-dimethylamino-2-hydroxypropoxy)benzylidene)-1-methyl-2,5-piperazinedione] | – | 5.00 | 30% | 5.30 | – |
| Cn1c(=O)/c(=C/c2ccc(C(=O)Nc3ccc(CCN4CCN(c5cccc(C(F)(F)F)c5)CC4)cc3)cc2)[nH]c(=O)/c1=C/c1ccccc1 [Compound 9049, N-(4-(2-(4-(3-Trifluoromethylphenyl)-1-piperazinyl)ethyl)phenyl)-4-((3Z,6Z)-6-benzylidene-1-methyl-2,5-dioxo-3-piperazinylidene)methylbenzamide] | – | 5.70 | 20% | – | Potentiation index (AR 1.0 cells [3]): 15 |
| Cn1c(=O)/c(=C/c2ccc(C(=O)Nc3ccc(N4CCOCC4)cc3)cc2)[nH]c(=O)/c1=C/c1ccccc1 [Compound 9054, N-(4-Morpholinophenyl)-4-((3Z,6Z)-6-benzylidene-1-methyl-2,5-dioxo-3-piperazinylidene)methylbenzamide, hydrochloride] | – | 4.30 | 32% | 4.52 | – |
| CN(CCNC(=O)c1ccc(/C=c2\[nH]c(=O)/c(=C/c3ccccc3)n(C)c2=O)cc1)C(c1ccccc1)c1ccccc1 [Compound 9076, N-(2-Diphenylmethylmethylaminoethyl)-4-((3Z,6Z)-6-benzylidene-1-methyl-2,5-dioxo-3-piperazinylidene)methylbenzamide, hydrochloride] | – | – | 44% | – | – |
| Cn1c(=O)/c(=C/c2ccc(C(=O)Nc3ccc(CCN4CCc5c([nH]c6ccccc56)C4)cc3)cc2)[nH]c(=O)/c1=C/c1ccccc1 [Compound 9080, N-(4-(2-(1,2,3,4-Tetrahydro-β-carbolin-2-yl)ethyl)phenyl)-4-((3Z,6Z)-6-benzylidene-1-methyl-2,5-dioxo-3-piperazinylidene)methylbenzamide] | – | – | – | – | Emax (AR 1.0 cells [2]): 18% |
| Cn1c(=O)/c(=C/c2ccc(C(=O)Nc3ccc(CN4CCc5c([nH]c6ccccc56)C4)cc3)cc2)[nH]c(=O)/c1=C/c1ccccc1 [Compound 9096, N-(4-(1,2,3,4-Tetrahydro-β-carbolin-2-yl)methylphenyl)-4-((3Z,6Z)-6-benzylidene-1-methyl-2,5-dioxo-3-piperazinylidene)methylbenzamide] | – | – | – | – | Emax (AR 1.0 cells [2]): 20% |
| Cn1c(=O)/c(=C/c2ccc(C(=O)Nc3ccc(CCN4CCN(c5ccccc5)CC4)cc3)cc2)[nH]c(=O)/c1=C/c1ccccc1 [Compound 9103, N-(4-(2-(4-Phenyl-1-piperazinyl)ethyl)phenyl)-4-((3Z,6Z)-6-benzylidene-1-methyl-2,5-dioxo-3-piperazinylidene)methylbenzamide] | – | – | 20% | – | – |
| COc1cc2c(cc1OC)CN(CCCc1ccc(NC(=O)c3cccc(/C=c4\[nH]c(=O)/c(=C/c5ccccc5)n(C)c4=O)c3)cc1)CC2 [Compound 9161, N-(4-(3-(6,7-Dimethoxy-1,2,3,4-tetrahydro-2-isoquinolyl)propyl)phenyl)-3-((3Z,6Z)-6-benzylidene-1-methyl-2,5-dioxo-3-piperazinylidene)methylbenzamide,hydrochloride] | – | – | 20% | – | – |
| COc1cccc2c1C(=O)c1c(O)c3c(c(O)c1C2=O)C[C@@](O)(C(=O)CO)C[C@@H]3O[C@H]1C[C@H](N)[C@H](O)[C@H](C)O1 [doxorubicin, reference compound] | – | – | – | – | Toxicity of doxorubicin alone (AR 1.0 cells [4]; doxorubicin alone, 0.86 μM, AR 1.0 cells): non-toxic |

Now from value to compound, other results behind:

| pIC50 (AR 1.0 cells [2]) | Structure (SMILES) | pIC50 (AR 1.0 cells [1]) | Emax (AR 1.0 cells [2]; [5]) | pIC50 (AR 1.0 cells [4]) | further results |
| --- | --- | --- | --- | --- | --- |
| 6.40 | COc1cc2c(cc1OC)CN(CCc1ccc(NC(=O)c3ccc(/C=c4\[nH]c(=O)/c(=C/c5ccccc5)n(C)c4=O)cc3)cc1)CC2 [Compound 9006, N-(4-(2-(6,7-Dimethoxy-1,2,3,4-tetrahydro-2-isoquinolyl)ethyl)phenyl)-4-((3Z,6Z)-6-benzylidene-1-methyl-2,5-dioxo-3-piperazinylidene)methylbenzamide] | 5.70 | – | – | Potentiation index (AR 1.0 cells [3]): 1000 |
| 5.52 | COc1cc2c(cc1OC)CN(CCNC(=O)c1ccc(/C=c3\[nH]c(=O)/c(=C/c4ccccc4)n(C)c3=O)cc1)CC2 [Compound 9008, N-(2-(6,7-Dimethoxy-1,2,3,4-tetrahydro-2-isoquinolyl)ethyl)-4-((3Z,6Z)-6-benzylidene-1-methyl-2,5-dioxo-3-piperazinylidene)methylbenzamide] | 5.00 | – | 5.70 | – |
| 4.00 | CN1CCN(C(=O)c2ccc(/C=c3\[nH]c(=O)/c(=C/c4ccccc4)n(C)c3=O)cc2)CC1 [Compound 9052, 1-(4-((3Z,6Z)-6-Benzylidene-1-methyl-2,5-dioxo-3-piperazinylidene)methylbenzoyl)-4-methylpiperazine, hydrochloride] | – | – | – | – |
| 4.30 | Cn1c(=O)/c(=C/c2ccc(C(=O)NCCN3CCOCC3)cc2)[nH]c(=O)/c1=C/c1ccccc1 [Compound 9053, N-(2-Morpholinoethyl)-4-((3Z,6Z)-6-benzylidene-1-methyl-2,5-dioxo-3-piperazinylidene)methylbenzamide, hydrochloride] | 4.40 | – | – | – |
| 5.22 | Cn1c(=O)/c(=C/c2ccc(C(=O)Nc3ccc(CCN4CCc5ccccc5C4)cc3)cc2)[nH]c(=O)/c1=C/c1ccccc1 [Compound 9065, N-(4-(2-(1,2,3,4-Tetrahydro-2-isoquinolyl)ethyl)phenyl)-4-((3Z,6Z)-6-benzylidene-1-methyl-2,5-dioxo-3-piperazinylidene)methylbenzamide] | 5.70 | – | – | Potentiation index (AR 1.0 cells [3]): 15 |
| 5.30 | C=CCNC(=O)c1ccc(/C=c2\[nH]c(=O)/c(=C/c3ccccc3)n(C)c2=O)cc1 [Compound 9070, N-Allyl-4-((3Z,6Z)-6-benzylidene-1-methyl-2,5-dioxo-3-piperazinylidene)methylbenzamide] | 4.40 | – | – | – |
| 5.70 | Cn1c(=O)/c(=C/c2cccc(C(=O)Nc3ccc(CCN4CCN(c5ccccc5)CC4)cc3)c2)[nH]c(=O)/c1=C/c1ccccc1 [Compound 9083, N-(4-(2-(4-Phenyl-1-piperazinyl)ethyl)phenyl)-3-((3Z,6Z)-6-benzylidene-1-methyl-2,5-dioxo-3-piperazinylidene)methylbenzamide] | 5.52 | – | 7.00 | – |
| 5.30 | COc1cc2c(cc1OC)CN(CCc1ccc(/C=c3\[nH]c(=O)/c(=C/c4ccccc4)n(C)c3=O)cc1)CC2 [Compound 9115, (3Z,6Z)-6-Benzylidene-3-(4-(2-(6,7-dimethoxy-1,2,3,4-tetrahydro-2-isoquinolyl)ethyl)benzylidene)-1-methyl-2,5-piperazinedione] | 4.22 | – | 5.70 | – |
| 5.40 | Cn1c(=O)/c(=C/c2ccc(C(=O)NCCN3CCc4ccccc4C3)cc2)[nH]c(=O)/c1=C/c1ccccc1 [Compound 9116, N-(2-(1,2,3,4-Tetrahydro-2-isoquinolyl)ethyl)-4-((3Z,6Z)-6-benzylidene-1-methyl-2,5-dioxo-3-piperazinylidene)methylbenzamide, hydrochloride] | 5.10 | – | 6.00 | – |
| 5.30 | COc1ccc(CCNC(=O)c2ccc(/C=c3\[nH]c(=O)/c(=C/c4ccccc4)n(C)c3=O)cc2)cc1OC [Compound 9117, N-(3,4-Dimethoxyphenethyl)-4-((3Z,6Z)-6-benzylidene-1-methyl-2,5-dioxo-3-piperazinylidene)methylbenzamide] | 5.10 | – | 5.52 | – |
| 5.52 | COc1cc2c(cc1OC)CN(Cc1ccc(NC(=O)c3cccc(/C=c4\[nH]c(=O)/c(=C/c5ccccc5)n(C)c4=O)c3)cc1)CC2 [Compound 9128, N-(4-(6,7-Dimethoxy-1,2,3,4-tetrahydro-2-isoquinolyl)methylphenyl)-3-((3Z,6Z)-6-benzylidene-1-methyl-2,5-dioxo-3-piperazinylidene)methylbenzamide] | 5.00 | – | 5.70 | – |
| 5.70 | COc1ccc(CCN(C)CCNC(=O)c2cccc(/C=c3\[nH]c(=O)/c(=C/c4ccccc4)n(C)c3=O)c2)cc1OC [Compound 9137] | 4.92 | – | 5.35 | – |
| 5.77 | COc1cc2c(cc1OC)CN(CC1CCN(C(=O)c3ccc(/C=c4\[nH]c(=O)/c(=C/c5ccccc5)n(C)c4=O)cc3)CC1)CC2 [Compound 9200, 1-(4-((3Z,6Z)-6-Benzylidene-1-methyl-2,5-dioxo-3-piperazinylidene)methylbenzoyl)-4-(6,7-dimethoxy-1,2,3,4-tetrahydroisoquinolyl)methylpiperidine] | 4.89 | – | 6.10 | – |
